Earlier results in patent US20060211763A1, “Treatment with Statin and Omega-3 Fatty Acids and a Combination Product Thereof” (priority 2005, published 2006).
One block for each compound: values may come before it.

What was measured:
[1] = system: patients with hyperlipidemia; conditions: 900 or 1800 mg/day EPA ethyl ester for 3 months added to 5-20 mg/day pravastatin or 5 mg/day simvastatin; vs baseline monotherapy
[2] = system: patients with hyperlipemia; conditions: 10 mg/day atorvastatin 5 weeks (vs baseline)
[3] = in vivo
[4] = system: patients with hypercholesterolemia; conditions: 40 mg/day lovastatin 6 weeks
[5] = then plus 2 g/day Omacor 5 weeks (vs atorvastatin alone; insignificant)
[6] = then combination with 6 g/day Omacor 6 weeks

- Bioavailability [3]: approximately 24%
SMILES: CC(C)n1c(/C=C/C(O)CC(O)CC(=O)O)c(-c2ccc(F)cc2)c2ccccc21 (stereo not drawn) [fluvastatin]

- Degradation in alkaline environment: converted to the acid form
- Rate of absorption [3]: about 30%
SMILES: CC[C@H](C)C(=O)O[C@H]1C[C@@H](C)C=C2C=C[C@H](C)[C@H](CC[C@@H]3C[C@@H](O)CC(=O)O3)[C@H]21 [lovastatin]
- HDL-C levels [4]: significant increases
- LDL-C levels [4, 6]: significant decreases
- Triglyceride levels [4, 6]: significant decreases

- Effect of food on absorption [3]: best absorbed without food
SMILES: CC[C@H](C)C(=O)O[C@H]1C[C@H](O)C=C2C=C[C@H](C)[C@H](CC[C@@H](O)C[C@@H](O)CC(=O)O)[C@H]21 [pravastatin]

More lines, now with the values behind:

SMILES: CC/C=C\C/C=C\C/C=C\C/C=C\C/C=C\CCCC(=O)OCC [EPA ethyl ester]
- HDL-C levels [1]: significantly increased
- Triglyceride levels [1]: significantly reduced

SMILES: CC(C)c1c(C(=O)Nc2ccccc2)c(-c2ccccc2)c(-c2ccc(F)cc2)n1CC[C@@H](O)C[C@@H](O)CC(=O)O [atorvastatin]
- HDL-C levels ([2]; then plus 2 g/day Omacor 5 weeks (vs atorvastatin alone)): significantly increased
- LDL-C levels [2, 5]: significantly decreased
- Triglyceride levels [2, 5]: significantly decreased
